Assay results reported in patent US5994334A, “Androgen synthesis inhibitors” (priority 1997, dated 1999).
“Also recorded” adds a separate entry of the source. Read-outs that look alike come from different tables or passages of the source.

Legend:
[1] = biological target: T1, human 17α-hydroxylase/C17,20-lyase (Homo sapiens, UniProt P05093); assay: Inhibition of human testicular 17α-hydroxylase/C17,20-lyase (enzyme complex as a whole); format: biochemical; conditions: for times more potent than ketoconazole: vs ketoconazole
T1 construct: incubating human testicular microsomes; from tissue; host or cells: human testis, microsomes
T1 sequence (P05093 1-508): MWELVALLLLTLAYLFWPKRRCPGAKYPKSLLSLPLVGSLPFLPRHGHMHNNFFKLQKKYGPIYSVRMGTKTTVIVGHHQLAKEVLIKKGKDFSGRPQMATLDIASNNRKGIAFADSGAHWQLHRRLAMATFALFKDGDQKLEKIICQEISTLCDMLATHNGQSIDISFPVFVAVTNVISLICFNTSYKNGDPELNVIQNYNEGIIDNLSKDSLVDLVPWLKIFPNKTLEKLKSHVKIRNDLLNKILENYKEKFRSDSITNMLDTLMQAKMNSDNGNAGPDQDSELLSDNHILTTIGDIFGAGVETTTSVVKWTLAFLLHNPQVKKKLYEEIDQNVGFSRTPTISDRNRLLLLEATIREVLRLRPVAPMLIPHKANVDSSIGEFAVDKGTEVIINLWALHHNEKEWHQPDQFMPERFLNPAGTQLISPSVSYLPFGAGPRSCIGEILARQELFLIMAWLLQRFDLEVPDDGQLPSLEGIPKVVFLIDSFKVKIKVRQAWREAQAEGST
Protocol: (§1) The conversion of radiolabeled pregnenolone to 17α-hydroxypregnenolone and DHEA by 17α-hydroxylase/C17,20 -lyase was measured by incubating human testicular microsomes with different concentration of test compounds. Reverse phase HPLC was used to separate and accurately quantify the amount of substrate and metabolites. The 17α-hydroxylase and C17,20 -lyase activities were calculated separately. The activity of 17α-hydroxylase was calculated from the conversion of pregnenolone to 17α-hydroxypregnenolone and DHEA and the activity of C17,20 -lyase was based on the conversion of pregnenolone to DHEA. Although 17α-hydroxypregnenolone is the substrate converted to DHEA by C17,20 -lyase, it has been reported that this 17α-hydroxy intermediate is not released from the enzyme binding site during conversion (Nakajin et al., 1981a,b). Also, there are species differences in substrate requirements. Pregnenolone is the natural substrate rather than progesterone for human testicular 17α-hydroxylase and C17,20 -lyase. Therefore, pregnenolone was used as substrate for measuring the activity of this enzyme complex.

[2] = biological target: T2, Human Testicular 17α-Hydroxylase (Homo sapiens, UniProt P05093); assay: Inhibition of human testicular 17α-hydroxylase (pregnenolone substrate, testicular microsomes); format: biochemical; conditions: for inhibition at 0.1 µM: read-out: % Inhibition 17α-hydroxylase, [I] = 100 nM; for inhibition at 0.4 µM: read-out: % Inhibition 17α-hydroxylase, [I] = 400 nM
T2 construct: incubating human testicular microsomes; from tissue; host or cells: human testis, microsomes
T2 sequence (P05093 1-508): T1 sequence (P05093 1-508)
Protocol: as §1

[3] = biological target: T3, Human Prostatic 5α-Reductase (Homo sapiens, UniProt P31213); assay: Inhibition of human prostatic 5α-reductase (prostatic microsomes, [3H]testosterone); conditions: for inhibition at 0.1 µM: read-out: % Inhibition of 5α-reductase, [I] 100 nM
T3 sequence (P31213 1-254): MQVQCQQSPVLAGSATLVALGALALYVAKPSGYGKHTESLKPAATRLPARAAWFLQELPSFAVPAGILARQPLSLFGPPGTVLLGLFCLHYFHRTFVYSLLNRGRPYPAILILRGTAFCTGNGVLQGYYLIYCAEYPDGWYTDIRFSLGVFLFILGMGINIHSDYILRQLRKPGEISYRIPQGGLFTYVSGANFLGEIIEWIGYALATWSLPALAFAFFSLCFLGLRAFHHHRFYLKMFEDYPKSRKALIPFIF
Protocol: The 5α-reductase assay is performed by incubating human prostatic microsomes (approx. 0.6 mg protein in 0.5 ml phosphate buffer) with [7-^3 H]testosterone (10 mM. 6×10^5 dpm) with a NADPH generating system (NADP 0.65 mM; glucose-6-phosphate 7.1 mM; glucose-6-phosphate dehydrogenase 2.5 IU in 100 μl phosphate buffer) and candidate inhibitors at concentrations of 10 nM and 100 nM under oxygen for 30 min at 37° C. […] The steroids are extracted with ether and separated by chromatography on TLC (chloroform:ether 80:20). […] The steroids are scraped from the plate and radioactivity measured.

[4] = biological target: T4, Human Testicular C17,20-lyase (Homo sapiens, UniProt P05093); assay: Inhibition of human testicular C17,20-lyase (pregnenolone substrate, testicular microsomes); format: biochemical; conditions: for inhibition at 0.1 µM: read-out: % Inhibition C17,20-lyase, [I] = 100 nM; for inhibition at 0.4 µM: read-out: % Inhibition C17,20-lyase, [I] = 400 nM
T4 construct: incubating human testicular microsomes; from tissue; host or cells: human testis, microsomes
T4 sequence (P05093 1-508): T1 sequence (P05093 1-508)
Protocol: as §1

[5] = IC50 5α-reductase, Table 3, NI = no inhibition
[6] = Table 1, NI = no inhibition, read-out: IC50 17α-OHase
[7] = Table 1, NI = no inhibition, CI = complete inhibition, read-out: IC50 C17,20 lyase
[8] = Table 3, first figure of 17α-hydroxylase/lyase pair, read-out: IC50 17α-hydroxylase
[9] = first figure of pair, read-out: IC50 17α-hydroxylase
[10] = second figure of pair, read-out: IC50 C17,20-lyase

CC(=O)C1=CC[C@H]2[C@@H]3CCC4=CC(=O)CC[C@]4(C)[C@H]3CC[C@]12C [Compound L-13, 16-dehydroprogesterone]
inhibition of 17α-hydroxylase/C17,20-lyase (in words) ([1]; NI = no inhibition): potent inhibitors of both enzymes | times more potent than ketoconazole [1]: 10-50 times | IC50 ([2]; IC50 17α-OHase): 73 nM | IC50 ([2]; IC50 17α-hydroxylase): 72.7 nM | IC50 ([2]; IC50 17α-hydroxylase (text)): 73 nM | IC50 ([3]; IC50 5α-reductase): 22 nM | IC50 ([3]; IC50 5α-reductase, Table 2): 22 nM | IC50 [3, 5]: 21.8 nM | inhibition of 5α-reductase (in words) ([3]; NI = no inhibition): potent inhibition of 5α-reductase; also recorded: almost equipotent with finasteride | inhibition at 0.1 µM [3]: 87.8% | inhibition at 0.4 µM ([3]; read-out: % Inhibition of 5α-reductase, [I] 400 nM): 96.4% | IC50 ([4]; IC50 C17,20-lyase): 24 nM | IC50 ([4]; IC50 C17,20 lyase): 24 nM | IC50 ([4]; IC50 lyase): 23.7 nM

C[C@]12CC[C@H]3[C@@H](CC=C4C[C@@H](O)CC[C@@]43C)[C@@H]1CC[C@@H]2[C@@]1(C)CO1 [Compound I-8]
inhibition of 17α-hydroxylase/C17,20-lyase (in words) ([1]; NI = no inhibition): significant inhibition | IC50 [2, 6]: 110 nM | inhibition at 0.01 µM ([3]; read-out: % Inhibition of 5α-reductase, [I] 10 nM): 11.8% | inhibition at 0.1 µM [3]: 16.3% | IC50 [4, 7]: 140 nM

C[C@]12CC[C@H]3[C@@H](CC=C4C[C@@H](O)CC[C@@]43C)[C@@H]1CC[C@@H]2c1ncc[nH]1 [Compound L-1]
inhibition of 17α-hydroxylase/C17,20-lyase (in words) ([1]; NI = no inhibition): poor inhibition of 17α-hydroxylase/C17,20 -lyase | inhibition at 0.1 µM ([2]; 100 nM, first figure of pair): 22.8% | inhibition at 0.4 µM ([2]; 400 nM, first figure of pair): 23.7% | inhibition at 0.1 µM ([4]; 100 nM, second figure of pair): 73.9% | inhibition at 0.4 µM ([4]; 400 nM, second figure of pair): 100%

CC(=NO)C1=CC[C@H]2[C@@H]3CCC4=CC(=O)CC[C@]4(C)[C@H]3CC[C@]12C [Compound L-2, 16-dehydroprogesterone-20-oxime]
inhibition of 17α-hydroxylase/C17,20-lyase (in words) ([1]; NI = no inhibition): potent inhibitors of both enzymes | stronger activity than I-5 against 17α-hydroxylase/C17,20-lyase ([1]; vs I-5): twofold stronger activity | times more potent than ketoconazole [1]: 10-50 times | IC50 [2, 6]: 8.7 nM | IC50 [2, 8]: 8.65 nM | IC50 [2, 9]: 6 nM | IC50 ([3]; IC50 5α-reductase): 52.5 nM | IC50 ([3]; IC50 5α-reductase, Table 2): 52 nM | IC50 [3, 5]: 52.5 nM | inhibition of 5α-reductase (in words) ([3]; NI = no inhibition): potent inhibition of 5α-reductase; also recorded: potent inhibitor of human 5α-reductase | inhibition at 0.1 µM [3]: 45.5% | times less potent than finasteride (5α-reductase) ([3]; vs finasteride): 4-6 times | IC50 [4, 10]: 5 nM

C[C@]12CCC(=O)C=C1CC[C@@H]1[C@@H]2CC[C@]2(C)C(c3c[nH]cn3)=CC[C@@H]12 [Compound L-6, 17β-(4'-imidazolyl)-androsta-4,16-dien-3-one]
inhibition of 17α-hydroxylase/C17,20-lyase (in words) ([1]; NI = no inhibition): potent inhibitors | times more potent than ketoconazole [1]: 10-50 times | IC50 [2, 6]: 16 nM | IC50 [2, 8]: 15.6 nM | IC50 [2, 9]: 16 nM | IC50 ([3]; IC50 5α-reductase): 522 nM | IC50 ([3]; IC50 5α-reductase, Table 2): 522 nM | IC50 [3, 5]: 522 nM | inhibition of 5α-reductase (in words) ([3]; NI = no inhibition): potent inhibitors; also recorded: potent inhibition of 5α-reductase | inhibition at 0.1 µM [3]: 25.2% | IC50 [4, 10]: 2 nM

CC(=NO)[C@H]1CC[C@H]2[C@@H]3CCC4=CC(=NO)CC[C@]4(C)[C@H]3CC[C@]12C [Compound I-42]
inhibition of 17α-hydroxylase/C17,20-lyase (in words) ([1]; NI = no inhibition): decreased activity | IC50 [2, 6]: 210 nM | inhibition of 5α-reductase (in words) ([3]; NI = no inhibition): decreased activity | IC50 ([3]; read-out: IC50 5α-reductase, Table 2): 2060 nM | IC50 [4, 7]: 220 nM

CC(=O)[C@@]1(Br)CC[C@H]2[C@@H]3CC=C4C[C@@H](O)CC[C@]4(C)[C@H]3CC[C@@]21C [Compound I-11]
inhibition of 17α-hydroxylase/C17,20-lyase (in words) ([1]; NI = no inhibition): poor inhibition | IC50 [2, 6]: 1300 nM | IC50 [4, 7]: 970 nM

C[C@H](N)[C@H]1CC[C@H]2[C@@H]3CC=C4C[C@@H](O)CC[C@]4(C)[C@H]3CC[C@]12C [Compound I-10]
inhibition of 17α-hydroxylase/C17,20-lyase (in words) ([1]; NI = no inhibition): poor inhibition | IC50 [2, 6]: 9800 nM | IC50 [4, 7]: 8000 nM

Cc1nc([C@H]2CC[C@H]3[C@@H]4CC=C5C[C@@H](O)CC[C@]5(C)[C@H]4CC[C@]23C)c[nH]1 [Compound L-4]
IC50 ([1]; one value for 17α-hydroxylase/lyase, NI = no inhibition, read-out: IC50 17α-hydroxylase/lyase (single entry)): 400 nM | inhibition at 0.1 µM [2]: 13.8% | inhibition at 0.4 µM [2]: 41.9% | inhibition at 0.1 µM [4]: 70.2% | inhibition at 0.4 µM [4]: 100%

C[C@@H](N)[C@H]1CC[C@H]2[C@@H]3CC=C4C[C@@H](O)CC[C@]4(C)[C@H]3CC[C@]12C [Compound I-9]
inhibition of 17α-hydroxylase/C17,20-lyase (in words) ([1]; NI = no inhibition): poor inhibition | IC50 [2, 6]: 89800 nM | IC50 [4, 7]: 43900 nM

C[C@H](c1c[nH]cn1)[C@H]1CC[C@H]2[C@@H]3CCC4=CC(=O)CC[C@]4(C)[C@H]3CC[C@]12C [Compound I-45]
inhibition of 17α-hydroxylase/C17,20-lyase (in words) ([1]; NI = no inhibition): did not show any activity | IC50 [2, 6]: > 30000 nM | IC50 [4, 7]: > 30000 nM

CC(=O)[C@@]12O[C@@H]1C[C@H]1[C@@H]3CC=C4C[C@@H](O)CC[C@]4(C)[C@H]3CC[C@@]12C [Compound I-17]
inhibition of 17α-hydroxylase/C17,20-lyase (in words) ([1]; NI = no inhibition): decreased potency | IC50 [2, 6]: 440 nM | IC50 [4, 7]: 680 nM

Cc1nc([C@H]2CC[C@H]3[C@@H]4CC=C5C[C@@H](O)CC[C@]5(C)[C@H]4CC[C@]23C)co1 [Compound L-5]
inhibition of 17α-hydroxylase/C17,20-lyase (in words) ([1]; NI = no inhibition): less inhibition | inhibition at 0.1 µM ([2]; 100 nM, first figure of pair): 22.4% | inhibition at 0.4 µM ([2]; 400 nM, first figure of pair): 26.5% | inhibition at 0.1 µM ([4]; 100 nM, second figure of pair): 71.2% | inhibition at 0.4 µM ([4]; 400 nM, second figure of pair): 81.7%

CC(=O)O[C@H]1CC[C@@]2(C)C(=CC[C@@H]3[C@@H]2CC[C@]2(C)C(c4c[nH]cn4)=CC[C@@H]32)C1 [Compound L-12]
inhibition of 17α-hydroxylase/C17,20-lyase (in words) ([1]; NI = no inhibition): lower potency than I-49; also recorded: weaker inhibitor than I-49 | inhibition at 0.1 µM ([2]; 100 nM, first figure of pair): 62.4% | inhibition at 0.4 µM ([2]; 400 nM, first figure of pair): 89.3% | IC50 [2, 6]: 75 nM | IC50 [2, 8]: 74.6 nM | IC50 [2, 9]: 75 nM | inhibition at 0.1 µM ([4]; 100 nM, second figure of pair): 82.1% | inhibition at 0.4 µM ([4]; 400 nM, second figure of pair): 97% | IC50 [4, 7]: 25 nM | IC50 ([4]; Table 3, second figure of pair, CI = complete inhibition, read-out: IC50 lyase): 24.8 nM | IC50 [4, 10]: 25 nM
